For 24 compounds, IC50 results are on record in patent US9334286B2, “Pharmacologically active compounds” (Cancer Research Technology Limited, priority 2012, dated 2016).

As usually defined, the IC50 is the concentration that gives 50% inhibition.

For the test, the target named is full length MPS1 (Homo sapiens (Human), UniProt P33981). Briefly: Measurement of inhibition of MPS1 kinase (Caliper EZ reader, fluorescent labelled peptide H236). Format: biochemical. Particulars: full length MPS1 12.5 nM or 3 nM, peptide H236 5 μM, ATP 10 μM, 60 min at room temperature. How it is done: The reaction was carried out for 60 min at room temperature and stopped by the addition of buffer (10 μl) containing 20 mM EDTA, 0.05% (v/v) Brij-35, in 0.1M HEPES-buffered saline (Free acid, Sigma, UK). The plate was read on a Caliper EZ reader II (Caliper Life Sciences).
Chain of full length MPS1 (P33981 whole entry): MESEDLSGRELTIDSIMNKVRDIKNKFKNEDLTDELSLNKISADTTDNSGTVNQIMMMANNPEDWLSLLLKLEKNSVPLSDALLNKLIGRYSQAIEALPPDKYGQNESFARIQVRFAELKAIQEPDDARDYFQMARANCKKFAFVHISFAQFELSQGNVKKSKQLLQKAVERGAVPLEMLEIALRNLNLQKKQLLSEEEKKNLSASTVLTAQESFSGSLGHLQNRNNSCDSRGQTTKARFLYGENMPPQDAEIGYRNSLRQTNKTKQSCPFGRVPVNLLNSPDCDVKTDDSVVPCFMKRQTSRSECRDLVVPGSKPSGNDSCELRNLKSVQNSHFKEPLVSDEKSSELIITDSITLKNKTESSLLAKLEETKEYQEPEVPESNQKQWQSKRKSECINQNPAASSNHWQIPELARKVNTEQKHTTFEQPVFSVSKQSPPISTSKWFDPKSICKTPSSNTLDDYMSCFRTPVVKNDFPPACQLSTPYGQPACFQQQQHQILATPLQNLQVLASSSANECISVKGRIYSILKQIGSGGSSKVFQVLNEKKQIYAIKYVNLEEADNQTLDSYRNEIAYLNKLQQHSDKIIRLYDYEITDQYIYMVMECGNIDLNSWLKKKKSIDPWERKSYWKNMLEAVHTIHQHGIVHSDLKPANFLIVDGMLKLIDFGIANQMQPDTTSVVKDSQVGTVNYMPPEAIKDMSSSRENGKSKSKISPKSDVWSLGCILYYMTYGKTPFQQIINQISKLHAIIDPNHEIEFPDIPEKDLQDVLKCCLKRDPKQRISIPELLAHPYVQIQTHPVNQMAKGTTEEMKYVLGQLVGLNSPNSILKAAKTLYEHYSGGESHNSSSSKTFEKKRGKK
The reader provides a Software package (‘Reviewer’) which converts the peak heights into % conversion by measuring both product and substrate peak and also allows selection of control well which represent 0% and 100% inhibition respectively. The % inhibition of the compounds is calculated relative to the means of selected control wells. IC50s are determined by testing the compounds at a range of concentrations from 0.25 nM-100 μM. The % inhibitions at each concentration are then fitted to a 4 parameter logistic fit: y=(a+((b−a)/(1+((c/x^d)))) where a=asym min, b=asym max, c=IC50 and d=hill coefficient
The compound `COc1cc(-c2cnc(C)n2C)ccc1Nc1cc2cc(-c3cnn(CC(C)O)c3)ccc2cn1` (single isomer, unassigned) [Example 98, 1-(4-(3-((4-(1,2-dimethyl-1H-imidazol-5-yl)-2-methoxyphenyl)amino)isoquinolin-6-yl)-1H-pyrazol-1-yl)propan-2-ol] had an IC50 of 3 nM.
As for `COc1cc(F)ccc1Nc1cc2cc(-c3cnn(CC(C)(C)O)c3)ccc2cn1` [Example 54, 1-(4-(3-(4-Fluoro-2-methoxyphenylamino)isoquinolin-6-yl)-1H-pyrazol-1-yl)-2-methylpropan-2-ol], the figure is 65 nM.
The same measure for `COc1cc(-c2cnc(C)n2C)ccc1Nc1cc2cc(-c3cnn(CC4CC4)c3)ccc2cn1` [Example 2, 6-(1-(Cyclopropylmethyl)-1H-pyrazol-4-yl)-N-(4-(1,2-dimethyl-1H-imidazol-5-yl)-2-methoxyphenyl)isoquinolin-3-amine]: 1 nM; for `COc1cc(-c2cnc(C)n2C)ccc1Nc1cc2cc(-c3cnn(C4CCOCC4)c3)ccc2cn1` [Example 39, N-(4-(1,2-Dimethyl-1H-imidazol-5-yl)-2-methoxyphenyl)-6-(1-(tetrahydro-2H-pyran-4-yl)-1H-pyrazol-4-yl)isoquinolin-3-amine]: 6 nM; for `COc1cc(S(=O)(=O)N(C)C)ccc1Nc1cc2cc(-c3cnn(CC(C)(C)O)c3)ccc2cn1` [Example 80, 4-((6-(1-(2-Hydroxy-2-methylpropyl)-1H-pyrazol-4-yl)isoquinolin-3-yl)amino)-3-methoxy-N,N-dimethylbenzenesulfonamide]: 3 nM.
The same measure for `COc1cc(C#N)ccc1Nc1cc2cc(-c3cnn(CC(C)(C)O)c3)ccc2cn1` [Example 49, 4-(6-(1-(2-Hydroxy-2-methylpropyl)-1H-pyrazol-4-yl)isoquinolin-3-ylamino)-3-methoxy-benzonitrile]: 11 nM; for `COCc1ncc(-c2ccc(Nc3cc4cc(-c5cnn(CC(C)(C)O)c5)ccc4cn3)c(OC)c2)n1C` [Example 63, 1-(4-(3-((2-Methoxy-4-(2-(methoxymethyl)-1-methyl-1H-imidazol-5-yl)phenyl)amino)-isoquinolin-6-yl)-1H-pyrazol-1-yl)-2-methylpropan-2-ol]: 1 nM.
For the compound `CNC(=O)c1ccc2cnc(Nc3ccc(-c4cnc(C)n4C)cc3OC)cc2c1` [Example 90, 3-((4-(1,2-Dimethyl-1H-imidazol-5-yl)-2-methoxyphenyl)amino)-N-methylisoquinoline-6-carboxamide], the IC50 is 5 nM.
As for `COc1cc(-c2cnc(C)n2C)ccc1Nc1cc2cc(-c3cnc(C)n3C)ccc2cn1` [Example 5, 6-(1,2-Dimethyl-1H-imidazol-5-yl)-N-(4-(1,2-dimethyl-1H-imidazol-5-yl)-2-methoxyphenyl)-isoquinolin-3-amine], the figure is 5 nM.
In the case of `COc1cc(C(=O)N2CCS(=O)(=O)CC2)ccc1Nc1cc2cc(-c3cnn(CC(C)(C)O)c3)ccc2cn1` [Example 65, (1,1-Dioxidothiomorpholino)(4-((6-(1-(2-hydroxy-2-methylpropyl)-1H-pyrazol-4-yl)isoquinolin-3-yl)amino)-3-methoxyphenyl)methanone], the midpoint of inhibition, the IC50, lay at 2 nM.
As for `COc1cc(C(=O)N2CCN(C)CC2)ccc1Nc1cc2cc(-c3cnn(CC(C)(C)O)c3)ccc2cn1` [Example 66], the figure is 2 nM; as for `CC(C)(O)Cn1cc(-c2ccc3cnc(Nc4ccc(-c5cncnc5)cc4Cl)cc3c2)cn1` [Example 58, 1-(4-(3-((2-Chloro-4-(pyrimidin-5-yl)phenyl)amino)isoquinolin-6-yl)-1H-pyrazol-1-yl)-2-methylpropan-2-ol], 5 nM; as for `COc1cc(-c2cnc(C)n2C)ccc1Nc1cc2cc(-c3cnco3)ccc2cn1` [Example 6, N-(4-(1,2-dimethyl-1H-imidazol-5-yl)-2-methoxyphenyl)-6-(oxazol-5-yl)isoquinolin-3-amine], 4 nM.
In turn, `COc1cc(-c2cnc(C)n2C)ccc1Nc1cc2cc(-c3ccncc3)ccc2cn1` [Example 7, N-(4-(1,2-dimethyl-1H-imidazol-5-yl)-2-methoxyphenyl)-6-(pyridin-4-yl)isoquinolin-3-amine] displayed a half-maximal inhibitory concentration (IC50) of 145 nM.
The same measure for `COc1cc(-c2cnn(C)c2C)ccc1Nc1cc2cc(-c3cnn(CC(C)(C)O)c3)ccc2cn1` [Example 53, 1-(4-(3-(4-(1,5-Dimethyl-1H-pyrazol-4-yl)-2-methoxyphenylamino)isoquinolin-6-yl)-1H-pyrazol-1-yl)-2-methylpropan-2-ol]: 4 nM.
`COCC(O)Cn1cc(-c2ccc3cnc(Nc4ccc(C(=O)N5CC(OC)C5)cc4OC)cc3c2)cn1` (racemic) [Example 78, (4-((6-(1-(2-Hydroxy-3-methoxypropyl)-1H-pyrazol-4-yl)isoquinolin-3-yl)amino)-3-methoxyphenyl)(3-methoxyazetidin-1-yl)methanone] had an IC50 of 17 nM.
On to `COc1cc(C(=O)N2CC3(CCOC3)C2)ccc1Nc1cc2cc(-c3cnn(CC(C)(C)O)c3)ccc2cn1` [Example 95, (4-(6-(1-(2-Hydroxy-2-methylpropyl)-1H-pyrazol-4-yl)isoquinolin-3-ylamino)-3-methoxyphenyl)(6-oxa-2-azaspiro[3,4]octan-2-yl)methanone], for which the half-maximal inhibitory concentration (IC50) was found to be 1 nM.
As for `COc1cc(-c2cnc(C)n2C)ccc1Nc1cc2cc(-c3cncc(C)c3)ccc2cn1` [Example 26, N-(4-(1,2-dimethyl-1H-imidazol-5-yl)-2-methoxyphenyl)-6-(5-methylpyridin-3-yl)isoquinolin-3-amine], the IC50 was 10 nM.
`COc1nc(-c2cnc(C)n2C)ccc1Nc1cc2cc(-c3cnn(CC(C)(C)O)c3)ccc2cn1` [Example 56, 1-(4-(3-(6-(1,2-Dimethyl-1H-imidazol-5-yl)-2-methoxypyridin-3-ylamino)isoquinolin-6-yl)-1H-pyrazol-1-yl)-2-methylpropan-2-ol] had a concentration for half-maximal inhibition (IC50) of 3 nM.
As for `COc1cc(-c2cnc(C)n2C)ccc1Nc1cc2cc(-c3cnnn3C)ccc2cn1` [Example 27, N-(4-(1,2-dimethyl-1H-imidazol-5-yl)-2-methoxyphenyl)-6-(1-methyl-1H-1,2,3-triazol-5-yl)isoquinolin-3-amine], the figure is 4 nM; as for `COc1cc(-c2cnc(C)n2C)ccc1Nc1cc2cc(-c3cnn(C)c3CO)ccc2cn1` [Example 34, (4-(3-((4-(1,2-Dimethyl-1H-imidazol-5-yl)-2-methoxyphenyl)amino)isoquinolin-6-yl)-1-methyl-1H-pyrazol-5-yl)methanol], 3 nM.
The same measure for `COc1cc(-c2cnc(C)n2C)ccc1Nc1cc2cc(-c3sc(C)nc3C)ccc2cn1` [Example 13, N-(4-(1,2-dimethyl-1H-imidazol-5-yl)-2-methoxyphenyl)-6-(2,4-dimethylthiazol-5-yl)isoquinolin-3-amine]: 97 nM; for `COc1cc(-c2nncn2C)ccc1Nc1cc2cc(-c3cnn(CC(C)(C)O)c3)ccc2cn1` [Example 41, 1-(4-(3-((2-Methoxy-4-(4-methyl-4H-1,2,4-triazol-3-yl)phenyl)amino)isoquinolin-6-yl)-1H-pyrazol-1-yl)-2-methylpropan-2-ol]: 1 nM.
As for `COc1cc(C(=O)N2CC(OC)C2)ccc1Nc1cc2cc(-c3cnn(CC(O)C(C)C)c3)ccc2cn1` (racemic) [Example 73, (4-((6-(1-(2-Hydroxy-3-methylbutyl)-1H-pyrazol-4-yl)isoquinolin-3-yl)amino)-3-methoxy-phenyl)(3-methoxyazetidin-1-yl)methanone], the figure is 4 nM.
